{"source": "paper PMC11720140", "about": "“Evaluation of the Anti-Amyloid and Anti-Inflammatory Properties of a Novel Vanadium(IV)–Curcumin Complex in Lipopolysaccharides-Stimulated Primary Rat Neuron-Microglia Mixed Cultures” (International Journal of Molecular Sciences, 2024)", "target": "T1, human insulin (HI) (Homo sapiens, UniProt P01308)", "T1 construct": "gene INS; HI (Actrapid)", "T1 sequence (P01308 25-54)": "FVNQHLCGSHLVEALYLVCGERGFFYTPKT", "T1 sequence (P01308 90-110)": "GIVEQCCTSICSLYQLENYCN", "assay": "Thioflavin-T fibrillation assay with insulin ([…] HCl, pH […] °C, […] h)", "assay_type": "biochemical"}
{"compound": "COc1cc(/C=C/C(=O)CC(=O)/C=C/c2ccc(O)c(OC)c2)ccc1O", "note": "[Curcumin]", "values": [{"measurement": "EC50", "result": 44.1, "unit": "µM"}]}
